According to patent US10864212B2, “Compositions and methods for treating retinal degradation” (University of Kentucky Research Foundation, priority 2013, dated 2020):
“Also recorded” adds a separate entry of the source.

Experiments:
Casp-1 = test: LPS/ATP-induced Casp-1 activation in primary human RPE cells; assay type: cell-based; conditions: d4T 25/100 uM, FIG. 8
Source text: Vinculin was used as the loading control in the gel of FIG. 8. Additionally, as shown, LPS and ATP activate the NLRP3 inflammasome only in combination.
The loading control in FIG. 8 is vinculin. Furthermore, as shown, LPS and ATP activate the NLRP3 inflammasome only in combination, thus treatment with one or the other alone is useful as a control for this experiment.

Caspase-1 [1] = test: LPS/ATP-induced Caspase-1 activation in mouse bone marrow-derived macrophages (Western blot); assay type: cell-based
Source text: (§1) To produce FIG. 9, cell culture supernatants were collected after (i) no treatment, (ii) LPS treatment, or (iii) LPS/ATP treatment of mouse bone marrow-derived macrophages and run on Western blotting probing with antibodies for Caspase-1 and IL-18.
Further, the present inventors also tested whether NRTIs blocked inflammasome activation by LPS/ATP, which is not known to signal via reverse transcriptase (Mariathasan et al., 2004; Mariathasan et al., 2006; Martinon et al., 2002).
FIGS. 38-41 illustrate that NRTIs block LPS/ATP-induced inflammasome activation. […] Representative images of n=3-4 experiments are provided in each of FIGS. 38-41.

HeLa cells = test: MTS proliferation assay of HeLa cells treated with Alu RNA expression plasmid (pAluA); assay type: cell-based, human; conditions: pAluA vs pUC19, d4T co-administration, FIG. 2
RPE degeneration [2] = test: RPE degeneration in mice after sub-retinal injection of a plasmid expressing Alu RNA, systemic drug administration; assay type: in vivo, mouse; conditions: daily oral administration of d4T, FIG. 36
Source text: FIG. 24, top row, provides flat mounts stained for zonula occludens-1 (ZO-1; red), bottom row. Degeneration is outlined if FIG. 24 by blue arrowheads. Representative images of n=4 are shown.
FIG. 36 and FIG. 37 include fundus photographs: top row; flat mounts stained for zonula occludens-1 (ZO-1; red), bottom row. Degeneration is outlined by blue arrowheads. Scale bars, 50 μm.

IRAK4 = test: Western blot of IRAK4 phosphorylation in primary mouse RPE cells transfected with Alu RNA; assay type: cell-based; conditions: FIG. 44
IL-18 = test: LPS/ATP-induced IL-18 maturation in mouse bone marrow-derived macrophages (Western blot); assay type: cell-based; conditions: supernatants, 100 uM, FIG. 9
Source text: as §1

human P2X7 receptor = target: T1, human P2X7 receptor (Homo sapiens, UniProt Q99572); test: bzATP-induced YO-PRO-1 dye uptake in HEK293 cells stably expressing the human P2X7 receptor; assay type: cell-based
T1 construct: expressed in transfected cells
T1 sequence (Q99572 1-595): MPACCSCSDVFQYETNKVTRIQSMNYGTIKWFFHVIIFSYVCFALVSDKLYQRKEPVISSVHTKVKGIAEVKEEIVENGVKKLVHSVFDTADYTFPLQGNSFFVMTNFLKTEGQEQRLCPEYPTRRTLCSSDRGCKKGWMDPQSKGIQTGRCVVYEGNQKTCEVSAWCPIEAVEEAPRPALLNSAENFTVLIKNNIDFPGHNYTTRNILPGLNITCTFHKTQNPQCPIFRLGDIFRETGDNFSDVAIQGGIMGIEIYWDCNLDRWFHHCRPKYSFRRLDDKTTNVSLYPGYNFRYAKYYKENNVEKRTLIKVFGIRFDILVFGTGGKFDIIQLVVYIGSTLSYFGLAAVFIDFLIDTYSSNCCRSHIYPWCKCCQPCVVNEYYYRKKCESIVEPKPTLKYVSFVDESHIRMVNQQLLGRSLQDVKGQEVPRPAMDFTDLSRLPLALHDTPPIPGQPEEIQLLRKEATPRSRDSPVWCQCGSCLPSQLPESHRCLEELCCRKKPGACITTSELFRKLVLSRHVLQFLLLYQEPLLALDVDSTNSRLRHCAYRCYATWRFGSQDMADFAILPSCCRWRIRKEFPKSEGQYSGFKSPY
Source text: Finally, P2X7 activation is associated with the formation of a large pore that is permeable to molecules of up to ˜1000 Da (Adinolfi et al., 2005; Cheewatrakoolpong et al., 2005; Surprenant et al., 1996).

mtDNA = mtDNA levels in primary mouse RPE cells by real-time quantitative PCR; assay type: cell-based
Source text: The present disclosure further provides the results of additional experiments in FIG. 21-FIG. 23.

Caspase-1 [3] = test: Western blot of Caspase-1 activation in primary mouse RPE cells transfected with Alu RNA; assay type: cell-based; conditions: FIG. 44
[4] = system: extracellular potassium levels; test: Extracellular potassium levels after Alu RNA transfection of primary human RPE cells (pyruvate kinase assay); assay type: cell-based; conditions: primary human RPE cells treated with Alu RNA for 6 hours; FIG. 18
Description: Potassium levels were determined in cell culture supernatants spectrophotometrically using a potassium-dependent pyruvate kinase assay.
For FIG. 18, potassium levels were determined in cell culture supernatants spectrophotometrically using a potassium-dependent pyruvate kinase assay.

Caspase-1 [5] = test: Western blot of Caspase-1 activation in primary human RPE cells transfected with Alu RNA; assay type: cell-based
Description: The bottom row is a vinculin loading control. […]
FIG. 7 is a Western blot showing that Alu RNA causes Caspase-1 maturation in primary human RPE cells at 24 hours after Alu administration (top, middle lane, lower band), which is blocked with co-treatment with azidothymidine (AZT), cordycepin, and abacavir (ABC) (50-100 uM; lanes 3-8 from left). The loading control vinculin is shown on the bottom.
FIG. 21 is a Western blot of Caspase-1 activation (p20 subunit) in primary human RPE cells transfected with Alu RNA±me-d4T.
FIG. 35 is a Western blot of Caspase-1 activation in human RPE cells transfected with Alu RNA±NRTIs (3TC, AZT, ABC).
The bottom row in FIG. 5 is a vinculin loading control. […]
Next, FIG. 7 provides evidence of AZT, cordycepin, and abacavir inhibition of inflammasome activation by Alu RNA. Indeed, Alu RNA causes NLRP3 inflammasome activation, which is marked by processing of the enzyme Caspase 1. FIG. 7 is a Western blot showing that Alu RNA causes Caspase-1 maturation in primary human RPE cells at 24 hours after Alu administration (top, lane 2, lower band), which is blocked with co-treatment with azidothymidine (AZT), cordycepin, and abacavir (ABC) (50-100 uM; Lanes 3-8). Again, the loading control vinculin is shown on the bottom.

[6] = system: mitochondrial reactive oxygen species (mtROS); test: MitoSox assay of mitochondrial ROS in primary human RPE cells with Alu expressing plasmid; assay type: cell-based; conditions: pAluA vs pUC19, after 15 hours, FIG. 15, 54
Description: After 15 hours cells were co-stained for mtROS (red) and for cell count, nuclei (blue; Hoechst DNA stain).
In FIG. 54, mitochondrial reactive oxygen species (ROS) were visualized with MitoSox (Red) and cell nuclei with Hoechst (Blue).

RPE degeneration [7] = test: Alu RNA-induced RPE degeneration in wild type mice, d4T co-delivered to the vitreous humor; assay type: in vivo, mouse; conditions: sub-retinal Alu RNA, increasing amounts, one week after delivery, FIG. 1
Source text: Arrows denote depigmented regions of RPE cell death, which resolve at highest dose of d4T.

## Cc1cn([C@H]2C=C[C@@H](CO)O2)c(=O)[nH]c1=O [d4T, 2′3′ dideoxythymidine]
Casp-1
  Casp-1 activation induced by LPS/ATP: blocks
Caspase-1 [1]; mouse bone marrow-derived macrophages, supernatants, 100 uM, FIG. 9
  Caspase-1 activation (active p20 band) induced by LPS/ATP: inhibit
Caspase-1 [1]; primary mouse bone marrow-derived macrophages, FIG. 38
  LPS/ATP-induced Caspase-1 maturation: inhibited; also recorded: blocked Caspase-1
HeLa cells
  Cell viability / cell death induced by Alu overexpression (MTS): prevented cell death induced by Alu overexpression
RPE degeneration [2]
  RPE degeneration caused by pAlu: blocked RPE degeneration; also recorded: prevented
IRAK4
  IRAK4 phosphorylation: blocks phosphorylation of IRAK4
IL-18
  IL-18 maturation induced by LPS/ATP: inhibit
Human P2X7 receptor; HEK293 human P2X7, pre-incubated 30 minutes, fluorescence 485/515 nm at t=30 minutes, FIG. 19
  YO-PRO-1 iodide entry stimulated with bzATP: blocked YO-PRO-1 iodide entry
Human P2X7 receptor; bzATP 100 μM, 64 μM for both drugs, p<0.05, n=12, FIG. 43
  P2X7-mediated YO-PRO-1 dye uptake (fluorescence) induced by bzATP: inhibited
Human P2X7 receptor; human P2X7-overexpressing HEK293 stable cell line, concentration not given
  P2X7-dependent uptake of YO-PRO1 after addition of bzATP: inhibited P2X7-dependent uptake of the fluorescent dye YO-PRO1
mtDNA
  mtDNA levels (normalized to chromosomal DNA exon-intron junction sequence): reduces mtDNA levels
Caspase-1 [3]
  Caspase 1 cleavage to its active 20 kDa form: prevents Caspase 1 cleavage to its active 20 kDa form
[4]
  Extracellular potassium levels after Alu RNA transfection: reduces extracellular potassium levels
Caspase-1 [5]; 24 hours after Alu administration, d4T 100 uM, FIG. 5
  Caspase-1 maturation caused by Alu RNA: blocked
Caspase-1 [5]; concentration not given, FIG. 21, 34, 35, 51-53
  Caspase-1 activation / cleavage (p20) induced by Alu RNA: block Caspase 1 activation by Alu RNA; also recorded: prevents Caspase 1 cleavage to its active 20 kDa form
[6]
  Mitochondrial ROS (mtROS) caused by Alu expression (MitoSox): blocks mitochondrial ROS (mtROS) production; also recorded: reduces mitochondrial ROS caused by Alu expression; also recorded: prevents pAlu-induced mitochondrial ROS generation
RPE degeneration [7]
  Alu RNA-induced RPE degeneration / RPE cell death (fundus photographs, ZO-1 flat mounts): prevents Alu RNA-induced RPE cell death in a dose-dependent manner; also recorded: restored to healthy RPE morphology/intercellular junctions at highest dose of d4T
